The target of the assay is T1, Cdc7 (BEV coexpressed huCDC7/DBF4) (Homo sapiens, UniProt O00311).
T1 construct: made in house; host or cells: BEV (baculovirus expression vector) co-expression; insect cells are implied but no cell line is named
T1 sequence (O00311 whole entry): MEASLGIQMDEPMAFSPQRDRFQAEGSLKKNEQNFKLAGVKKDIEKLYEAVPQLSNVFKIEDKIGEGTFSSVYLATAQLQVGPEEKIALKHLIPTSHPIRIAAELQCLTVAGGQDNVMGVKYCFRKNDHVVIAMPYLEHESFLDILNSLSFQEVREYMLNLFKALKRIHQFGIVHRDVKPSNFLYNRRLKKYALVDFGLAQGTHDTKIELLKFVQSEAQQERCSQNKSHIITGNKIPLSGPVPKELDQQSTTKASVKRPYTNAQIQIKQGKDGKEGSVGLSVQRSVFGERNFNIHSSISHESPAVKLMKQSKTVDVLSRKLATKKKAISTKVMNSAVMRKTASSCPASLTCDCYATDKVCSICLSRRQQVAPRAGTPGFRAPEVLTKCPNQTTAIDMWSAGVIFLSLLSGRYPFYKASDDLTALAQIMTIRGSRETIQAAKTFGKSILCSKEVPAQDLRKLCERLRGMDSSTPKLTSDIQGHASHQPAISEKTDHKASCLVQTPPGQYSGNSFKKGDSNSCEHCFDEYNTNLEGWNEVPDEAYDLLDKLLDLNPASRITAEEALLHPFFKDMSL
T1 sequence (Q9UBU7 whole entry partner): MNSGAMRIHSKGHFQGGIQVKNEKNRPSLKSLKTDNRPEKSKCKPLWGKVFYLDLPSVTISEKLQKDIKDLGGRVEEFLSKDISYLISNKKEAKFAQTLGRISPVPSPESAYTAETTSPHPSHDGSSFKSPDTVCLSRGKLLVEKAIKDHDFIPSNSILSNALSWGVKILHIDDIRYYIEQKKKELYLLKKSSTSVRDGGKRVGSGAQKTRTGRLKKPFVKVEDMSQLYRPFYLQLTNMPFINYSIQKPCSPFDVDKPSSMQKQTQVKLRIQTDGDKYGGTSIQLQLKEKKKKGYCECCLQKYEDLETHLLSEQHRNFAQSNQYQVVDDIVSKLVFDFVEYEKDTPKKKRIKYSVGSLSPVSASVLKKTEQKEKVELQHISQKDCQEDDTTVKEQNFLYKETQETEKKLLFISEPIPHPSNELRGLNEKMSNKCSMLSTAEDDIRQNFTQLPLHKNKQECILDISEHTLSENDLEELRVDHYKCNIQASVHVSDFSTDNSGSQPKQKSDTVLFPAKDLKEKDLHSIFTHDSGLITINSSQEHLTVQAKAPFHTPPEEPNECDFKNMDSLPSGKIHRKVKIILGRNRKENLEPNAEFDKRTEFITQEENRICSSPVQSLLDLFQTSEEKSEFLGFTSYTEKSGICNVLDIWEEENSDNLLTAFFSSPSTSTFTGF
The assay can be described thus: Cdc7 enzyme inhibition assay ([33P]ATP, biotinylated peptide substrate, FlashPlate). The format is biochemical. The following applies: Table 3; enzyme inhibition data (Ki). On the procedure:
Cdc7 (BEV coexpressed huCDC7/DBF4) is prepared internally. Cdc7 assays are conducted as follows with final concentrations as listed. […] Reactions are quenched after 1 hr by the addition of 90 μL stop buffer (50 mM EDTA, 2M NaCl). […] (Ki) for exemplary compounds.
One may read the Ki as a measure of affinity in units of concentration, obtained from inhibition or displacement. High values mean lower affinity, low ones higher affinity. In turn, `O=C(CNC(=O)c1ccccc1)NC1CCCC(Nc2cc(-c3c[nH]c4ncccc34)cc(Cl)n2)C1` (stereo not shown) [Example 73, N-{2-[(3-{[6-chloro-4-(1H-pyrrolo[2,3-b]pyridin-3-yl)pyridin-2-yl]-amino}cyclohexyl)amino]-2-oxoethyl}benzamide] came in with a Ki of less than 10 nM.

On to `O=S(=O)(NC1CCCC(Nc2cc(-c3c[nH]c4ncccc34)cc(Cl)n2)C1)C1CC1` (stereo not shown) [Example 76, N-(3-{[6-chloro-4-(1H-pyrrolo[2,3-b]pyridin-3-yl)pyridin-2-yl]amino}cyclohexyl)cyclopropanesulfonamide], for which the inhibition constant Ki was less than 10 nM.

In the case of `CCCS(=O)(=O)NC1CCCC(Nc2cc(-c3c[nH]c4ncccc34)cc(Cl)n2)C1` (stereo not shown) [Example 77, N-(3-{[6-chloro-4-(1H-pyrrolo[2,3-b]pyridin-3-yl)pyridin-2-yl]amino}cyclohexyl)propane-1-sulfonamide], the Ki is less than 10 nM.

Regarding `Cc1ccc(S(=O)(=O)NC2CCCC(Nc3cc(-c4c[nH]c5ncccc45)cc(Cl)n3)C2)cc1` (stereo not shown) [Example 78, N-(3-{[6-chloro-4-(1H-pyrrolo[2,3-b]pyridin-3-yl)pyridin-2-yl]amino}cyclohexyl)-4-methylbenzenesulfonamide], the inhibitory constant (Ki) is less than 10 nM. Take `CCNC(=O)NC1CCCC(Nc2cc(-c3c[nH]c4ncccc34)cc(Cl)n2)C1` (stereo not shown) [Example 79, 1-(3-{[6-chloro-4-(1H-pyrrolo[2,3-b]pyridin-3-yl)pyridin-2-yl]amino}cyclohexyl)-3-ethylurea]: the Ki is less than 10 nM. Next, `O=C(NC1CCCC1)NC1CCCC(Nc2cc(-c3c[nH]c4ncccc34)cc(Cl)n2)C1` (stereo not shown) [Example 80, 1-(3-{[6-chloro-4-(1H-pyrrolo[2,3-b]pyridin-3-yl)pyridin-2-yl]amino}cyclohexyl)-3-cyclopentylurea]: less than 10 nM; `CC(C)(CNc1cc(-c2c[nH]c3ncccc23)cc(Cl)n1)CNS(=O)(=O)c1cccnc1` [Example 81, N-(3-{[6-chloro-4-(1H-pyrrolo[2,3-b]pyridin-3-yl)pyridin-2-yl]amino}-2,2-dimethylpropyl)pyridine-3-sulfonamide]: 10 to 100 nM. As for `CC(C)(CNc1cc(-c2c[nH]c3ncccc23)cc(Cl)n1)CNS(=O)(=O)C1CC1` [Example 82, N-(3-{[6-chloro-4-(1H-pyrrolo[2,3-b]pyridin-3-yl)pyridin-2-yl]amino}-2,2-dimethylpropyl)cyclopropanesulfonamide], the Ki is less than 10 nM. The compound `O=S(=O)(NC1CCCC(Nc2cc(-c3c[nH]c4ncccc34)cc(Cl)n2)C1)c1cccs1` (stereo not shown) [Example 83, N-(3-{[6-chloro-4-(1H-pyrrolo[2,3-b]pyridin-3-yl)pyridin-2-yl]amino}cyclohexyl)thiophene-2-sulfonamide] returned a Ki of less than 10 nM. `CCCCC(=O)Nc1cc(-c2c[nH]c3ncccc23)cc(Cl)n1` [Example 84, N-[6-chloro-4-(1H-pyrrolo[2,3-b]pyridin-3-yl)pyridin-2-yl]pentanamide] came in with a Ki of less than 10 nM. The compound `O=C(Nc1cc(-c2c[nH]c3ncccc23)cc(Cl)n1)C1CCCCC1` [Example 85, N-[6-chloro-4-(1H-pyrrolo[2,3-b]pyridin-3-yl)pyridin-2-yl]cyclohexanecarboxamide] registered a Ki of less than 10 nM.

`O=C(Nc1cc(-c2c[nH]c3ncccc23)cc(Cl)n1)c1ccccc1` [Example 86, N-[6-chloro-4-(1H-pyrrolo[2,3-b]pyridin-3-yl)pyridin-2-yl]benzamide] registered a Ki of less than 10 nM. On to `O=S(=O)(NCCNc1cc(-c2c[nH]c3ncccc23)cc(Cl)n1)C1CC1` [Example 89, N-(2-{[6-chloro-4-(1H-pyrrolo[2,3-b]pyridin-3-yl)pyridin-2-yl]amino}ethyl)cyclopropanesulfonamide], for which the Ki is less than 10 nM. As for `O=S(=O)(NCCNc1cc(-c2c[nH]c3ncccc23)cc(Cl)n1)c1cccnc1` [Example 90, N-(2-{[6-chloro-4-(1H-pyrrolo[2,3-b]pyridin-3-yl)pyridin-2-yl]amino}ethyl)pyridine-3-sulfonamide], the Ki is less than 10 nM.

Turning to `Clc1cc(-c2c[nH]c3ncccc23)cc(NC2CCC2)n1` [Example 92, 6-chloro-N-cyclobutyl-4-(1H-pyrrolo[2,3-b]pyridin-3-yl)pyridin-2-amine], the Ki was less than 10 nM.

`CN(C)[C@H]1CC[C@H](Nc2cc(-c3c[nH]c4ncccc34)cc(Cl)n2)CC1` [Example 93, trans-N′-[6-chloro-4-(1H-pyrrolo[2,3-b]pyridin-3-yl)pyridin-2-yl]-N,N-dimethylcyclohexane-1,4-diamine] registered a Ki of less than 10 nM. `CCN1CCCC(CNc2cc(-c3c[nH]c4ncccc34)cc(Cl)n2)C1` (stereo not shown) [Example 94, 6-chloro-N-[(1-ethylpiperidin-3-yl)methyl]-4-(1H-pyrrolo[2,3-b]pyridin-3-yl)pyridin-2-amine] displayed a Ki of less than 10 nM. As to `Clc1cc(-c2c[nH]c3ncccc23)cc(NCC2CCCN(C3CCC3)C2)n1` (stereo not shown) [Example 95, 6-chloro-N-[(1-cyclobutylpiperidin-3-yl)methyl]-4-(1H-pyrrolo[2,3-b]pyridin-3-yl)pyridin-2-amine], the Ki was less than 10 nM.

As for `Clc1cc(-c2c[nH]c3ncccc23)cc(NCC2CCCN(Cc3cccnc3)C2)n1` (stereo not shown) [Example 96, 6-chloro-N-{[1-(pyridin-3-ylmethyl)piperidin-3-yl]methyl}-4-(1H-pyrrolo[2,3-b]pyridin-3-yl)pyridin-2-amine], the Ki was less than 10 nM. Compound `CS(=O)(=O)N1CCCC(CNc2cc(-c3c[nH]c4ncccc34)cc(Cl)n2)C1` (stereo not shown) [Example 97, 6-chloro-N-((1-(methylsulfonyl)piperidin-3-yl)methyl)-4-(1H-pyrrolo[2,3-b]pyridin-3-yl)pyridin-2-amine] showed a Ki of less than 10 nM. On to `CCNC(=O)N1CCCC(CNc2cc(-c3c[nH]c4ncccc34)cc(Cl)n2)C1` (stereo not shown) [Example 98, 3-((6-chloro-4-(1H-pyrrolo[2,3-b]pyridin-3-yl)pyridin-2-ylamino)methyl)-N-ethylpiperidine-1-carboxamide], for which the Ki was less than 10 nM. Consider `CNC(=O)N[C@H]1CC[C@H](Nc2cc(-c3c[nH]c4ncccc34)cc(Cl)n2)CC1` [Example 99, 1-(trans-4-{[6-chloro-4-(1H-pyrrolo[2,3-b]pyridin-3-yl)pyridin-2-yl]amino}cyclohexyl)-3-methylurea], for which the Ki is less than 10 nM. With `CC(=O)N1CCCC(CNc2cc(-c3c[nH]c4ncccc34)cc(Cl)n2)C1` (stereo not shown) [Example 100, 1-[3-({[6-chloro-4-(1H-pyrrolo[2,3-b]pyridin-3-yl)pyridin-2-yl]amino}methyl)piperidin-1-yl]ethanone], the Ki was less than 10 nM.

In turn, `O=S(=O)(C1CC1)N1CCCC(CNc2cc(-c3c[nH]c4ncccc34)cc(Cl)n2)C1` (stereo not shown) [Example 101, 6-chloro-N-{[1-(cyclopropylsulfonyl)piperidin-3-yl]methyl}-4-(1H-pyrrolo[2,3-b]pyridin-3-yl)pyridin-2-amine] had a Ki of less than 10 nM. `O=C(C1CC1)N1CCCC(Nc2cc(-c3c[nH]c4ncccc34)cc(Cl)n2)C1` (stereo not shown) [Example 102, (3-{[6-chloro-4-(1H-pyrrolo[2,3-b]pyridin-3-yl)pyridin-2-yl]amino}piperidin-1-yl)(cyclopropyl)methanone] registered a Ki of less than 10 nM.

As to `Clc1cc(-c2c[nH]c3ncccc23)cc(NC2CCCC(NCC3CC3)C2)n1` (stereo not shown) [Example 103, N-[6-chloro-4-(1H-pyrrolo[2,3-b]pyridin-3-yl)pyridin-2-yl]-N′-(cyclopropylmethyl)cyclohexane-1,3-diamine], the Ki is less than 10 nM. `Clc1cc(-c2c[nH]c3ncccc23)cc(NC2CCCN(C3CCC3)C2)n1` (stereo not shown) [Example 104, 6-chloro-N-(1-cyclobutylpiperidin-3-yl)-4-(1H-pyrrolo[2,3-b]pyridin-3-yl)pyridin-2-amine] registered a Ki of less than 10 nM. Regarding `Clc1cc(-c2c[nH]c3ncccc23)cc(N[C@H]2CC[C@H](NC3CCC3)CC2)n1` [Example 105, trans-N-[6-chloro-4-(1H-pyrrolo[2,3-b]pyridin-3-yl)pyridin-2-yl]-N′-cyclobutylcyclohexane-1,4-diamine], the Ki was less than 10 nM. Compound `O=C(N[C@H]1CC[C@H](Nc2cc(-c3c[nH]c4ncccc34)cc(Cl)n2)CC1)[C@@H]1CCN1` [Example 106, (2S)—N-(trans-4-{[6-chloro-4-(1H-pyrrolo[2,3-b]pyridin-3-yl)pyridin-2-yl]amino}cyclohexyl)azetidine-2-carboxamide] showed a Ki of less than 10 nM. The compound `O=C(Nc1cc(-c2c[nH]c3ncccc23)cc(Cl)n1)c1cccnc1` [Example 107, N-[6-chloro-4-(1H-pyrrolo[2,3-b]pyridin-3-yl)pyridin-2-yl]pyridine-3-carboxamide] registered a Ki of less than 10 nM. With `Clc1cc(-c2c[nH]c3ncccc23)cc(N[C@H]2CC[C@H](NCC3CC3)CC2)n1` [Example 109, trans-N-[6-chloro-4-(1H-pyrrolo[2,3-b]pyridin-3-yl)pyridin-2-yl]-N′-(cyclopropylmethyl)cyclohexane-1,4-diamine], the Ki was less than 10 nM. Take `O=C(Nc1cc(-c2c[nH]c3ncccc23)cc(Cl)n1)C1CCNCC1` [Example 112, N-[6-chloro-4-(1H-pyrrolo[2,3-b]pyridin-3-yl)pyridin-2-yl]piperidine-4-carboxamide]: the Ki is less than 10 nM. Turning to `CC(=O)NCC(C)(C)CNc1cc(-c2c[nH]c3ncccc23)cc(Cl)n1` [Example 113, N-(3-{[6-chloro-4-(1H-pyrrolo[2,3-b]pyridin-3-yl)pyridin-2-yl]amino}-2,2-dimethylpropyl)acetamide], the Ki was less than 10 nM. Regarding `CN(C)CC(=O)N[C@H]1CC[C@H](Nc2cc(-c3c[nH]c4ncccc34)cc(Cl)n2)CC1` [Example 114, N-(trans-4-{[6-chloro-4-(1H-pyrrolo[2,3-b]pyridin-3-yl)pyridin-2-yl]amino}cyclohexyl)-N^2,N^2-dimethylglycinamide], the Ki was less than 10 nM.

The record behind these values is patent US8435980B2 (AbbVie Inc., priority 2009, dated 2013).
